# Data taken from PubChem BioAssay (NCI).
#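 A five-concentration, 48-hour dose response in 96-well plates underlies each endpoint, interpolated linearly between surrounding concentrations. TGI: concentration producing complete growth inhibition.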 Where a SMILES comes first, the peptide text is derived from it. The star is where a group is joined. Boc = CC(C)(C)OC(=O)*; OBn = c1ccc(CO*)cc1
# What was measured:
# Assay in all cases: NCI anticancer screen, dose series, 48 h
# UACC-257 melanoma = system: UACC-257 melanoma
# A549 NSCLC = system: A549 NSCLC
# SN12C renal = system: SN12C renal
# HT29 colon = system: HT29 colon
# U251 CNS = system: U251 CNS
# K-562 leukemia = system: K-562 leukemia
# MALME-3M melanoma = system: MALME-3M melanoma
# HOP-92 NSCLC = system: HOP-92 NSCLC
# NCI-H522 lung = system: NCI-H522 lung
# OVCAR-8 ovarian = system: OVCAR-8 ovarian
Compound,TGI (UACC-257 melanoma) [µM],TGI (A549 NSCLC) [µM],TGI (SN12C renal) [µM],TGI (HT29 colon) [µM],TGI (U251 CNS) [µM],TGI (K-562 leukemia) [µM],TGI (MALME-3M melanoma) [µM],TGI (HOP-92 NSCLC) [µM],TGI (NCI-H522 lung) [µM],TGI (OVCAR-8 ovarian) [µM]
CC(C)CC(NC(=O)C(Cc1ccccc1)NC(=O)C(Cc1ccccc1)NC(=O)OC(C)(C)C)C(=O)OCc1ccccc1 (stereo not drawn) (Boc-Phe-Phe-Leu-OBn; configuration not given here),> 100,> 100,> 100,> 100,> 100,> 100,> 100,> 100,> 100,> 100
O=C1CCCC2=C1CC1=C(CCCC1=O)N2c1cccc([N+](=O)[O-])c1,,> 100,> 100,> 100,> 100,> 100,,,,> 100
CCN(CC)CCNC(=O)c1nn(-c2ccc(Cl)cc2)c2c1CCc1cc(OC)ccc1-2,3.57,21.3,24.2,6.7,17.8,11.1,2.95,15.8,11,28.2
Cc1nnc([C@@]2(C)CC[C@H]3[C@@H](CCC4=CC(=O)CC[C@@]43C)[C@@H]2CC#N)o1,> 100,> 100,> 100,> 100,> 100,> 100,> 100,> 100,> 100,> 100
O=[N+]([O-])c1ccc(COc2cccc3cccnc23)cc1,54.8,> 100,> 100,> 100,> 100,35.9,> 100,> 100,19.4,> 100
O=[N+]([O-])c1ccc(O)c(C=NCC2CCCN3CCCCC23)c1 (configuration not stated),> 100,> 100,,> 100,,,> 100,,> 100,> 100
CCN(CC)CC(=O)Nc1ccc2c(c1)C(=O)c1ccc(NC(=O)CN(CC)CC)cc1C2=O,97.4,> 100,> 100,> 100,47,67.8,,> 100,43.2,94.9
CN=C(NC)N(C)c1nc(=[N+](C)C)ss1,> 100,> 100,> 100,> 100,> 100,> 100,,> 100,> 100,> 100
O=C(CCc1ccc(O)cc1)NCCCNC(=O)CCc1ccc(O)cc1,> 100,> 100,> 100,> 100,> 100,> 100,> 100,,> 100,> 100
CC(=O)OCCOCCN1CCN(c2c(O)c3c(c(O)c2Cl)C(=O)C=CC3=O)CC1,2.38,3.94,1.77,2.17,4.1,,0.96,0.822,0.583,2.66
C=CCN1C[C@@H](C)N([C@@H](c2ccc(C(=O)N(CC)CC)cc2)c2cccc(OC)c2)C[C@@H]1C,,> 100,> 100,> 100,> 100,> 100,> 100,> 100,> 100,> 100
